Measured values from patent publication US11006626B2, “Compounds for protection of cells” (Sulfateq B.V., priority 2012, dated 2021).

Key:
PRP platelets [1] = assay: PRP platelets stored with Sul 136, aggregation after stimulation with ADP; format: cell-based; set-up: key to aggregation of the platelets after stimulation with ADP: +means that the cells show aggregation and can thus be activated upon stimulation; −means no aggregation upon stimulation
Experimental: […] • The color and coagulation properties were visually analysed. • The thrombocyte cells that survived were counted and it was evaluated whether the thrombocytes were aggregated. • It was evaluated if the thrombocytes still were able to function after stimulation by the addition of ADP or under influence of collagen in a 96 well plate. • The adhesion was evaluated, meaning the ability of the platelets to bind collagen in a 6 well plate preincubated with collagen. • Via an ELISA assay, it was evaluated whether thromboxane was secreted from the platelets. Thromboxane facilitates aggregation and is produced by activated blood platelets.
(+means that the cells show aggregation and can thus be activated upon stimulation, −means no aggregation upon stimulation)

PRP platelets [2] = assay: PRP platelets stored at 4° C. with Sul 136, number of cells that survived; format: cell-based; settings: for number of cells in % relative to the number of cells at time 0: 4° C.
Experimental: […] The blood platelets with the compound were then stored at 4° C.
and tested as follows: • The color and coagulation properties were visually analysed. • The thrombocyte cells that survived were counted and it was evaluated whether the thrombocytes were aggregated. • It was evaluated if the thrombocytes still were able to function after stimulation by the addition of ADP or under influence of collagen in a 96 well plate. • The adhesion was evaluated, meaning the ability of the platelets to bind collagen in a 6 well plate preincubated with collagen. • Via an ELISA assay, it was evaluated whether thromboxane was secreted from the platelets. Thromboxane facilitates aggregation and is produced by activated blood platelets.
PRP platelets were tested with the addition of Sul 136. […] The number of cells are given in % relative to the number of cells at time 0. 66% of the platelets stored at room temperature survived after 216 hours. Only 42.3% of the cells stored at 4° C. survived after 216 hours.

With `Cc1c(C)c2c(c(C)c1O)CCC(C)(C(=O)N1CCN(CC(=O)O)CC1)O2` (racemic) [SUL - 136, 2-(4-(6-hydroxy-2,5,7,8-tetramethylchroman-2-carbonyl)piperazin-1-yl)acetic acid] the “activity after stimulation with ADP” value (PRP platelets [1]; 10 mM) was “still showed activity”, the “aggregation of the platelets after stimulation with ADP” value (from here on “aggregation of the platelets”) (PRP platelets [1]; 10 min 0.001 mM, 0 h) was “+” and the “aggregation of the platelets” value (PRP platelets [1]; 10 min 0.001 mM, 24 h) was “−”. For the same molecule, the “aggregation of the platelets” value (PRP platelets [1]; 10 min 0.001 mM, 48 h) was “−”, the “aggregation of the platelets” value (PRP platelets [1]; 10 min 0.001 mM, 72 h) was “−” and the “aggregation of the platelets” value (PRP platelets [1]; 10 min 0.001 mM, 216 h) was “−”. For the same molecule, the “aggregation of the platelets” value (PRP platelets [1]; 10 min 0.01 mM, 0 h) was “+”, the “aggregation of the platelets” value (PRP platelets [1]; 10 min 0.01 mM, 24 h) was “−” and the “aggregation of the platelets” value (PRP platelets [1]; 10 min 0.01 mM, 48 h) was “−”. The “aggregation of the platelets” value (PRP platelets [1]; 10 min 0.01 mM, 72 h) was “−”, the “aggregation of the platelets” value (PRP platelets [1]; 10 min 0.01 mM, 216 h) was “−” and the “aggregation of the platelets” value (PRP platelets [1]; 10 min 0.1 mM, 0 h) was “+”. The “aggregation of the platelets” value (PRP platelets [1]; 10 min 0.1 mM, 24 h) was “−”, the “aggregation of the platelets” value (PRP platelets [1]; 10 min 0.1 mM, 48 h) was “−” and the “aggregation of the platelets” value (PRP platelets [1]; 10 min 0.1 mM, 72 h) was “−”. For the same molecule, the “aggregation of the platelets” value (PRP platelets [1]; 10 min 0.1 mM, 216 h) was “−”, the “aggregation of the platelets” value (PRP platelets [1]; 10 min 1 mM, 0 h) was “+” and the “aggregation of the platelets” value (PRP platelets [1]; 10 min 1 mM, 24 h) was “−”. For the same molecule, the “aggregation of the platelets” value (PRP platelets [1]; 10 min 1 mM, 48 h) was “−”, the “aggregation of the platelets” value (PRP platelets [1]; 10 min 1 mM, 72 h) was “−” and the “aggregation of the platelets” value (PRP platelets [1]; 10 min 1 mM, 216 h) was “−”. For the same molecule, the “aggregation of the platelets” value (PRP platelets [1]; 10 min 10 mM, 0 h) was “+”, the “aggregation of the platelets” value (PRP platelets [1]; 10 min 10 mM, 24 h) was “+” and the “aggregation of the platelets” value (PRP platelets [1]; 10 min 10 mM, 48 h) was “+”. The “aggregation of the platelets” value (PRP platelets [1]; 10 min 10 mM, 72 h) was “+”, the “aggregation of the platelets” value (PRP platelets [1]; 10 min 10 mM, 216 h) was “+” and the “aggregation of the platelets” value (PRP platelets [1]; 60 min 0.001 mM, 0 h) was “+”. For the same molecule, the “aggregation of the platelets” value (PRP platelets [1]; 60 min 0.001 mM, 24 h) was “−”, the “aggregation of the platelets” value (PRP platelets [1]; 60 min 0.001 mM, 48 h) was “−” and the “aggregation of the platelets” value (PRP platelets [1]; 60 min 0.001 mM, 72 h) was “−”. For the same molecule, the “aggregation of the platelets” value (PRP platelets [1]; 60 min 0.001 mM, 216 h) was “−”, the “aggregation of the platelets” value (PRP platelets [1]; 60 min 0.01 mM, 0 h) was “+” and the “aggregation of the platelets” value (PRP platelets [1]; 60 min 0.01 mM, 24 h) was “−”. For the same molecule, the “aggregation of the platelets” value (PRP platelets [1]; 60 min 0.01 mM, 48 h) was “−”, the “aggregation of the platelets” value (PRP platelets [1]; 60 min 0.01 mM, 72 h) was “−” and the “aggregation of the platelets” value (PRP platelets [1]; 60 min 0.01 mM, 216 h) was “−”. The “aggregation of the platelets” value (PRP platelets [1]; 60 min 0.1 mM, 0 h) was “+”, the “aggregation of the platelets” value (PRP platelets [1]; 60 min 0.1 mM, 24 h) was “−” and the “aggregation of the platelets” value (PRP platelets [1]; 60 min 0.1 mM, 48 h) was “−”. The “aggregation of the platelets” value (PRP platelets [1]; 60 min 0.1 mM, 72 h) was “−”, the “aggregation of the platelets” value (PRP platelets [1]; 60 min 0.1 mM, 216 h) was “−” and the “aggregation of the platelets” value (PRP platelets [1]; 60 min 1 mM, 0 h) was “+”. For the same molecule, the “aggregation of the platelets” value (PRP platelets [1]; 60 min 1 mM, 24 h) was “−”, the “aggregation of the platelets” value (PRP platelets [1]; 60 min 1 mM, 48 h) was “−” and the “aggregation of the platelets” value (PRP platelets [1]; 60 min 1 mM, 72 h) was “−”. For the same molecule, the “aggregation of the platelets” value (PRP platelets [1]; 60 min 1 mM, 216 h) was “−”, the “aggregation of the platelets” value (PRP platelets [1]; 60 min 10 mM, 0 h) was “+” and the “aggregation of the platelets” value (PRP platelets [1]; 60 min 10 mM, 24 h) was “+”. For the same molecule, the “aggregation of the platelets” value (PRP platelets [1]; 60 min 10 mM, 48 h) was “+”, the “aggregation of the platelets” value (PRP platelets [1]; 60 min 10 mM, 72 h) was “+” and the “aggregation of the platelets” value (PRP platelets [1]; 60 min 10 mM, 216 h) was “−”. The “number of cells in % relative to the number of cells at time 0” value (PRP platelets [2]; 10 min 0.001 mM, 0 h) was 100%, the “number of cells in % relative to the number of cells at time 0” value (PRP platelets [2]; 10 min 0.001 mM, 72 h) was 58.9% and the “number of cells in % relative to the number of cells at time 0” value (PRP platelets [2]; 10 min 0.001 mM, 216 h) was 55.1%. For the same molecule, the “number of cells in % relative to the number of cells at time 0” value (PRP platelets [2]; 10 min 0.01 mM, 0 h) was 100%, the “number of cells in % relative to the number of cells at time 0” value (PRP platelets [2]; 10 min 0.01 mM, 72 h) was 66.0% and the “number of cells in % relative to the number of cells at time 0” value (PRP platelets [2]; 10 min 0.01 mM, 216 h) was 52.1%. For the same molecule, the “number of cells in % relative to the number of cells at time 0” value (PRP platelets [2]; 10 min 0.1 mM, 0 h) was 100%, the “number of cells in % relative to the number of cells at time 0” value (PRP platelets [2]; 10 min 0.1 mM, 72 h) was 55.9% and the “number of cells in % relative to the number of cells at time 0” value (PRP platelets [2]; 10 min 0.1 mM, 216 h) was 50.8%. For the same molecule, the “number of cells in % relative to the number of cells at time 0” value (PRP platelets [2]; 10 min 1 mM, 0 h) was 100%, the “number of cells in % relative to the number of cells at time 0” value (PRP platelets [2]; 10 min 1 mM, 72 h) was 59.1% and the “number of cells in % relative to the number of cells at time 0” value (PRP platelets [2]; 10 min 1 mM, 216 h) was 59.3%. For the same molecule, the “number of cells in % relative to the number of cells at time 0” value (PRP platelets [2]; 10 min 10 mM, 0 h) was 100%, the “number of cells in % relative to the number of cells at time 0” value (PRP platelets [2]; 10 min 10 mM, 72 h) was 64.8% and the “number of cells in % relative to the number of cells at time 0” value (PRP platelets [2]; 10 min 10 mM, 216 h) was 47.9%. The “number of cells in % relative to the number of cells at time 0” value (PRP platelets [2]; 60 min 0.001 mM, 0 h) was 100%, the “number of cells in % relative to the number of cells at time 0” value (PRP platelets [2]; 60 min 0.001 mM, 72 h) was 83.8% and the “number of cells in % relative to the number of cells at time 0” value (PRP platelets [2]; 60 min 0.001 mM, 216 h) was 86.1%. The “number of cells in % relative to the number of cells at time 0” value (PRP platelets [2]; 60 min 0.01 mM, 0 h) was 100%, the “number of cells in % relative to the number of cells at time 0” value (PRP platelets [2]; 60 min 0.01 mM, 72 h) was 82.9% and the “number of cells in % relative to the number of cells at time 0” value (PRP platelets [2]; 60 min 0.01 mM, 216 h) was 94.8%. The “number of cells in % relative to the number of cells at time 0” value (PRP platelets [2]; 60 min 0.1 mM, 0 h) was 100%, the “number of cells in % relative to the number of cells at time 0” value (PRP platelets [2]; 60 min 0.1 mM, 72 h) was 76.3% and the “number of cells in % relative to the number of cells at time 0” value (PRP platelets [2]; 60 min 0.1 mM, 216 h) was 77.6%. The “number of cells in % relative to the number of cells at time 0” value (PRP platelets [2]; 60 min 1 mM, 0 h) was 100%, the “number of cells in % relative to the number of cells at time 0” value (PRP platelets [2]; 60 min 1 mM, 72 h) was 29.9% and the “number of cells in % relative to the number of cells at time 0” value (PRP platelets [2]; 60 min 1 mM, 216 h) was 62.9%. The “number of cells in % relative to the number of cells at time 0” value (PRP platelets [2]; 60 min 10 mM, 0 h) was 100%, the “number of cells in % relative to the number of cells at time 0” value (PRP platelets [2]; 60 min 10 mM, 72 h) was 51.8% and the “number of cells in % relative to the number of cells at time 0” value (PRP platelets [2]; 60 min 10 mM, 216 h) was 43.4%. The “platelets survived after storage” value (PRP platelets [2]; storage of 72 and 216 hours at 4° C., vs. no compound) was “substantial more platelets survived”.
